Reference: ChEMBL document CHEMBL1201862, “PubChem BioAssay data set” (2004)
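A five-concentration, 48-hour dose response in 96-well plates underlies each endpoint, interpolated linearly between surrounding concentrations. Abbreviation: GI50, concentration required for 50% inhibition of growth.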 Calls of active or inactive are those of the source. Rule as the data show it: active = GI50 up to about 1.1 µM and inactive = higher. Where a SMILES comes first, the peptide text is derived from it. The star is where a group is joined. Boc = CC(C)(C)OC(=O)*; OBn = c1ccc(CO*)cc1

What was measured:
Test in all cases: NCI anticancer screen, dose series, 48 h
[1] = tested on: 786-0
[2] = tested on: A498
[3] = tested on: A549
[4] = tested on: ACHN
[5] = tested on: BT-549
[6] = tested on: CAKI-1
[7] = tested on: COLO 205
[8] = tested on: DU-145
[9] = tested on: EKVX
[10] = tested on: HCT-116
[11] = tested on: HCT-15
[12] = tested on: HL-60
[13] = tested on: HOP-62
[14] = tested on: HOP-92
[15] = tested on: HT-29
[16] = tested on: Hs-578T
[17] = tested on: IGROV-1
[18] = tested on: K562
[19] = tested on: KM12
[20] = tested on: LOX IMVI
[21] = tested on: M14
[22] = tested on: MCF7
[23] = tested on: MDA-MB-231
[24] = tested on: MDA-MB-435
[25] = tested on: MDA-N
[26] = tested on: MOLT-4
[27] = tested on: Malme-3M
[28] = tested on: NCI-H226
[29] = tested on: NCI-H23
[30] = tested on: NCI-H460
[31] = tested on: NCI-H522
[32] = tested on: NCI/ADR-RES
[33] = tested on: OVCAR-3
[34] = tested on: OVCAR-4
[35] = tested on: OVCAR-5
[36] = tested on: OVCAR-8
[37] = tested on: PC-3
[38] = tested on: RPMI-8226
[39] = tested on: RXF 393
[40] = tested on: SF-268
[41] = tested on: SF-295
[42] = tested on: SF-539
[43] = tested on: SK-MEL-28
[44] = tested on: SK-MEL-2
[45] = tested on: SK-MEL-5
[46] = tested on: SK-OV-3
[47] = tested on: SN12C
[48] = tested on: SNB-19
[49] = tested on: SNB-75
[50] = tested on: SR
[51] = tested on: SW-620
[52] = tested on: T47D
[53] = tested on: TK-10
[54] = tested on: U-251
[55] = tested on: UACC-62
[56] = tested on: UO-31
[57] = tested on: CCRF-CEM
[58] = tested on: UACC-257

Measured: GI50

CC(CCCC1SCC2NC(=O)NC21)C(=O)O (centres undefined)
inactive: [1] > 100 µM | [2] > 100 µM | [3] > 100 µM | [4] > 100 µM | [5] > 100 µM | [6] > 100 µM | [7] > 100 µM | [8] > 100 µM | [9] > 100 µM | [10] > 100 µM | [12] > 100 µM | [13] > 100 µM | [14] > 100 µM | [15] > 100 µM | [16] > 100 µM | [17] > 100 µM | [18] > 100 µM | [19] > 100 µM | [20] > 100 µM | [21] > 100 µM | [22] > 100 µM | [23] > 100 µM | [24] > 100 µM | [25] > 100 µM | [26] > 100 µM | [27] > 100 µM | [28] > 100 µM | [29] > 100 µM | [30] > 100 µM | [31] > 100 µM | [32] > 100 µM | [33] > 100 µM | [34] > 100 µM | [35] > 100 µM | [36] > 100 µM | [37] > 100 µM | [38] > 100 µM | [39] > 100 µM | [40] > 100 µM | [41] > 100 µM | [42] > 100 µM | [43] > 100 µM | [44] > 100 µM | [45] > 100 µM | [46] > 100 µM | [47] > 100 µM | [48] > 100 µM | [49] > 100 µM | [50] > 100 µM | [51] > 100 µM | [52] > 100 µM | [53] > 100 µM | [54] > 100 µM | [55] > 100 µM | [56] > 100 µM
> 100 µM: [11]

CC(C)CCCC(C)[C@H]1CCC2[C@@H]3CCC4Cc5nc6c(nc5C[C@]4(C)C3CC[C@@]21C)CC1CC[C@@H]2C(CC[C@@]3(C)C2CC[C@@H]3O)[C@@]1(C)C6 (some centres undefined)
inactive: [1] 87.1 µM | [2] > 100 µM | [3] > 100 µM | [4] > 100 µM | [5] > 100 µM | [57] > 100 µM | [7] > 100 µM | [8] > 100 µM | [9] > 100 µM | [10] > 100 µM | [12] > 100 µM | [13] > 100 µM | [14] > 100 µM | [15] > 100 µM | [16] > 100 µM | [17] > 100 µM | [18] > 100 µM | [19] > 100 µM | [20] > 100 µM | [21] > 100 µM | [22] > 100 µM | [23] > 100 µM | [24] > 100 µM | [25] > 100 µM | [26] > 100 µM | [27] > 100 µM | [28] > 100 µM | [29] > 100 µM | [30] > 100 µM | [32] > 100 µM | [33] > 100 µM | [34] > 100 µM | [35] > 100 µM | [36] > 100 µM | [37] > 100 µM | [38] > 100 µM | [39] > 100 µM | [40] > 100 µM | [41] > 100 µM | [42] > 100 µM | [43] > 100 µM | [44] > 100 µM | [45] > 100 µM | [46] > 100 µM | [47] > 100 µM | [48] > 100 µM | [49] 62.2 µM | [50] > 100 µM | [51] > 100 µM | [52] > 100 µM | [53] > 100 µM | [54] > 100 µM | [58] > 100 µM | [55] > 100 µM | [56] > 100 µM
> 100 µM: [11]

COC(=O)C1=C(O)C(C(=O)OC)[C@@]2(O)[C@@H](C(=O)OC)C(c3ccc(OC(=O)/C(=C/c4ccc(Cl)cc4)c4ccc(Cl)cc4)cc3)C[C@@H]1[C@@H]2C(=O)OC (some centres undefined)
inactive: [1] 22 µM | [2] > 100 µM | [3] 77.4 µM | [4] 32.4 µM | [5] 95.7 µM | [6] 15.9 µM | [57] 6.3 µM | [7] 24 µM | [8] 39 µM | [9] 33.8 µM | [10] 11.3 µM | [12] 34.6 µM | [13] > 100 µM | [14] 19.5 µM | [15] 38.5 µM | [16] > 100 µM | [17] 20.2 µM | [18] 22.3 µM | [19] 37.8 µM | [20] 14.3 µM | [21] 15.6 µM | [22] 20.6 µM | [23] 19.1 µM | [24] 23.5 µM | [25] 17.5 µM | [26] 4.45 µM | [27] 55.7 µM | [28] 19.5 µM | [29] 50.1 µM | [30] 14.4 µM | [31] 36.6 µM | [32] 57.7 µM | [33] 51.1 µM | [34] 20.6 µM | [35] 30.1 µM | [36] 41 µM | [37] 24.1 µM | [39] 11.2 µM | [40] 99.3 µM | [41] 29.8 µM | [42] 12.2 µM | [43] > 100 µM | [44] 14.3 µM | [45] 26.1 µM | [46] > 100 µM | [47] 25.9 µM | [48] 61.9 µM | [49] 28.3 µM | [50] 9.06 µM | [51] 31.1 µM | [52] 18.7 µM | [53] 16.1 µM | [54] 24.4 µM | [58] 52.6 µM | [55] 7.29 µM | [56] 12.6 µM
18.5 µM: [11]

CC(C)CC(NC(=O)C(Cc1ccccc1)NC(=O)C(Cc1ccccc1)NC(=O)OC(C)(C)C)C(=O)OCc1ccccc1 (stereo not drawn) (Boc-Phe-Phe-Leu-OBn; configuration not given here)
inactive: [1] > 100 µM | [2] > 100 µM | [3] > 100 µM | [5] > 100 µM | [6] > 100 µM | [57] > 100 µM | [7] > 100 µM | [8] > 100 µM | [9] > 100 µM | [10] > 100 µM | [12] > 100 µM | [13] > 100 µM | [14] > 100 µM | [15] > 100 µM | [16] > 100 µM | [17] > 100 µM | [18] > 100 µM | [19] > 100 µM | [20] > 100 µM | [21] > 100 µM | [22] > 100 µM | [23] > 100 µM | [24] > 100 µM | [25] > 100 µM | [26] > 100 µM | [27] > 100 µM | [28] > 100 µM | [29] > 100 µM | [31] > 100 µM | [32] > 100 µM | [33] > 100 µM | [35] > 100 µM | [36] > 100 µM | [37] > 100 µM | [38] > 100 µM | [39] > 100 µM | [40] > 100 µM | [41] > 100 µM | [42] > 100 µM | [43] > 100 µM | [44] > 100 µM | [45] > 100 µM | [46] > 100 µM | [47] > 100 µM | [48] > 100 µM | [49] > 100 µM | [50] > 100 µM | [51] > 100 µM | [52] > 100 µM | [53] > 100 µM | [54] > 100 µM | [58] > 100 µM | [55] > 100 µM | [56] > 100 µM
> 100 µM: [11]
